Here are results for 14 compounds from publication PMC10238325, “Optimization of antimicrobial peptides for the application against biocorrosive bacteria” (Applied Microbiology and Biotechnology, 2023).

Converted amounts (≈) assume the structure as drawn. Where a SMILES comes first, the peptide text is derived from it. Where no end group is shown, it is not given here. Some results are limits rather than exact numbers.

The test system of series [1] is Desulfovibrio vulgaris DSM 644. The format is cell-based. The following applies: for MIC95 D. vulgaris: 95% growth inhibition, 96-well microdilution, 2-fold series 1000–1.95 μg/mL, n=3, OD600, modified Postgate medium, anaerobic. As for the experimental part: (§1) The following SRB were used: Desulfovibrio vulgaris DSM 644, Desulfovibrio desulfuricans DSM 642, and Desulfovibrio indonesiensis DSM 15121. The Postgate medium (DSMZ medium 63) with a modification of 0.004 g/L FeSO4 × 7 H2O and 0.3 g/L Tri-sodium citrate (and 2% NaCl for D. indonesiensis) was flushed with nitrogen gas. Each culture was subcultured 1:100. Cultivation occurred for 48 h, 37 °C (30 °C for D. desulfuricans), without shaking. The following SOB was used: Thiomonas intermedia DSM 18155. Therefore, the Thiomonas medium (DSMZ medium 35a) was used, subcultured 1:100, and cultivated for 48 h, 30 °C, 115 rpm. Escherichia coli K12 ATCC 25404 was grown in LB Lennox medium (Carl Roth GmbH & Co.KG Karlsruhe, Germany) for 18 h, 37 °C, 115 rpm and diluted 1:1000 in Mueller-Hinton broth (Carl Roth GmbH & Co.KG Karlsruhe, Germany). Incubation during the assay took place for 24 h, 37 °C, 115 rpm.
(§2) A stock solution of 1 mg/mL in milliQ from the respective peptide and a concentration range of 1000–1.95 μg/mL was prepared by serial 2-fold dilution. 20 μL of each test substance (n=3) per well was added to a 96-well microtiter plate (polystyrene). 100 μL of each bacteria suspension (start OD600: 0.001) was added to the well with test substance, as well as 120 μL as growth control (n=35) and 120 μL medium (n=1) as sterile control to an empty well. To avoid evaporation, all microtiter plates were cultivated in air-tight containers during the incubation period. Microtiter plates for testing on SRB were prepared in the anaerobic chamber (Coy Laboratory Products Inc. Grass Lake, United States of America) and cultivated in air-tight containers including Oxoid anaerobic bag (Thermo Fisher Scientific Inc. Waltham, United States of America) to ensure anaerobic conditions. The microtiter plates were measured before and after incubation at OD600, and the growth inhibition in % was determined with the following equation:1 inhibition%=ΔOD600testsubstance/ΔOD600growthcontrole∙100%
(§3) The minimum inhibitory concentration (MIC) describes the lowest concentration where no bacterial growth could be detected. Besides the MIC100, where a complete reduction of bacterial growth could be detected, other partial inhibitions such as MIC95 or MIC50, where 95% or 50% growth inhibition occurs, can be specified.

Series [2] has as its system Desulfovibrio desulfuricans DSM 642. The class given is cell-based. The note with it: DSM 642, 48 h. The method, then:
as §1, §2, §3

In series [3] the test system is Desulfovibrio indonesiensis DSM 15121. As to the kind of experiment: MIC assay against D. indonesiensis. The format is cell-based. The note with it: 95% growth inhibition; 96-well microdilution, n=3, OD600; modified Postgate medium with 2% NaCl, anaerobic, 48 h, 37 °C, without shaking. As for the experimental part:
as §1, §2, §3

The next series can be described thus: in vitro. The class given is in vitro ADME, Desulfovibrio vulgaris. The note with it: for remaining at 48 h, 1 mg/mL / remaining at 168 h, 1 mg/mL: cells or culture medium. As for the experimental part: The analysis of the peptides was performed on a RP-HPLC (Agilent 1100, detector: diode array detector G1315A, column: Phenomenex®-Aeris™ 2.6 μm Peptide XB-C18 100 Å,150 × 2.1 mm), and ESI-LC-MS was performed (Knauer, detector: Surveyor MSQ, column: Eurospher II 100-2 C18A, 100 × 2 mm, 2 μm). The gradient was performed with a flow rate of 0.25 mL/min from 99% of mobile phase A (0.1% TFA in milliQ) over 15 min to 95% of mobile phase B (0.1% TFA in acetonitrile), kept at 95% with B for 2 min, and equilibrated at 99% with A for another 3 min. 20 μL (RP-HPLC) and 10 μL (ESI-LC-MS) peptide solution (250 μg/mL in milliQ) was injected.
For the stability tests, a bacterial suspension (7 days old) of D. vulgaris was centrifuged at 5000 rpm for 10 min. 1 mg/mL peptide solution was prepared within the supernatant and incubated at 37 °C for 7 days. The respective aliquots (t=0, 48, 72, 168 h) were mixed 1:10 with quenching solution (milliQ + 0.08% trifluoroacetic acid) and analyzed in triplicates according to the protocol described above for RP-HPLC. In addition, after incubation in the supernatant (168 h), the peptide (P3.2.) was analyzed for activity using the MIC assay.

Series [4] deals with Thiomonas intermedia DSM 18155. The class given is cell-based. The following applies: DSM 18155, 48 h. The method, then: as §1, §2, §3
In the next series the test system is SRB. The following applies: ref Greene et al. [2006]; cited from earlier work. The text has this: The current strategy to control microbial-influenced corrosion is based on biocides, which lead to fast resistance, requiring higher and higher concentrations to eradicate the bacteria. Alternative treatment strategies are based on additives like D-amino acids or chelates to biocides to reduce the required biocide concentration by a synergistic effect. However, these additives are not inhibitory on their own, and although a reduced biocide concentration is required, the presence of biocide is still necessary (Jia et al. [2017]; Wen et al. [2012]; Wen et al. [2009]). In this paper, a new method ...

As for `CCCCCCCCCCCC(=O)N[C@@H](CCCCN)C(=O)N[C@@H](CCCCN)C(=O)N[C@@H](CC(C)C)C(=O)N[C@@H](Cc1c[nH]c2ccccc12)C(=O)N[C@@H](CCCCN)C(=O)N[C@@H](Cc1c[nH]c2ccccc12)C(=O)N[C@@H](CC(C)C)C(=O)N[C@@H](CCCCN)C(=O)N[C@@H](CCCCN)C(=O)N[C@@H](CC(C)C)C(=O)N[C@@H](CC(C)C)C(N)=O` [Peptide P3.5.] (HELM PEPTIDE1{[CCCCCCCCCCCC(=O)[*:2]].K.K.L.W.K.W.L.K.K.L.L.[am]}$$$$V2.0), in series [1] (48 h, 37 °C, without shaking), the “MIC95 D. vulgaris” value turned out to be 62.5 µg/mL (≈ 37.5 µM). For the same compound, the “MIC50 D. desulfuricans” value in series [2] was 62.5 µg/mL (≈ 37.5 µM). For the same compound, the “MIC95 D. indonesiensis” value in series [3] was found to be 31.25 µg/mL (≈ 18.8 µM).

Turning to `CC(C)C[C@H](NC(=O)[C@H](CC(C)C)NC(=O)[C@H](CCCCN)NC(=O)[C@H](CCCCN)NC(=O)[C@H](CC(C)C)NC(=O)[C@H](Cc1c[nH]c2ccccc12)NC(=O)[C@H](CCCCN)NC(=O)[C@H](Cc1c[nH]c2ccccc12)NC(=O)[C@H](CC(C)C)NC(=O)[C@H](CCCCN)NC(=O)[C@H](CCCCN)NC(=O)CCCCCN)C(N)=O` [Peptide P3.2.] (HELM PEPTIDE1{[NCCCCCC(=O)[*:2]].K.K.L.W.K.W.L.K.K.L.L.[am]}$$$$V2.0), in “in vitro”, the share remaining at 48 h, 1 mg/mL was 99% and the amount remaining at 168 h, 1 mg/mL was 85%. Further, the “MIC95 D. vulgaris” value in series [1] (48 h, 37 °C, without shaking) amounted to 15.63 µg/mL (≈ 9.79 µM). Besides, the “MIC50 D. vulgaris after incubation in supernatant” value in series [1] (DSM 644, 168 h) amounted to 31.25 µg/mL (≈ 19.6 µM). In series [1] (peptide (1 mg/mL) first incubated 168 h in D. vulgaris supernatant, then dilution series, 48 h, 37 °C, without shaking), the “MIC95 D. vulgaris after incubation in supernatant” value came to 62.5 µg/mL (≈ 39.2 µM). Besides, in series [2], the “MIC50 D. desulfuricans” value came out at 250 µg/mL (≈ 157 µM). Further, in series [3], the “MIC95 D. indonesiensis” value was 125 µg/mL (≈ 78.3 µM).

Take RRLWRWLRRLL [Peptide P1.1.]: the “MIC50 D. desulfuricans” value in series [2] is 1000 µg/mL.

Turning to KKLWKWLKKLL-NH2 [Peptide P2.1.], the “MIC50 D. desulfuricans” value in series [2] was 250 µg/mL.

As to KKLWKWLKKLL [Peptide L5K5W-W4I6], in “in vitro”, the fraction remaining at 48 h, 1 mg/mL amounted to 94% and the share remaining at 168 h, 1 mg/mL is 86%. The “MIC50 D. desulfuricans” value in series [2] was greater than 1000 µg/mL.

On to `CC[C@H](C)[C@H](NC(=O)[C@H](CCCNC(=N)N)NC(=O)[C@H](CS)NC(=O)[C@H](CC(C)C)NC(=O)[C@@H](N)CCCNC(=N)N)C(=O)N[C@H](C(=O)N[C@H](C(=O)N[C@H](C(=O)N[C@@H](CCCNC(=N)N)C(=O)N[C@H](C(=O)N[C@@H](CS)C(=O)N[C@@H](CCCNC(=N)N)C(=O)O)C(C)C)[C@@H](C)CC)C(C)C)C(C)C` [Bactenecin] (H-RLCRIVVIRVCR-OH; N-terminus and C-terminus assumed), for which, in “in vitro”, the “stability in supernatant (in words)” value is on record as “significant stability loss after only 48 h”; the amount remaining at 48 h, 1 mg/mL was 41%; the share remaining at 168 h, 1 mg/mL worked out at 17%. For the same compound, the “MIC95 D. vulgaris” value in series [1] (48 h, 37 °C, without shaking) turned out to be 62.5 µg/mL (≈ 42.1 µM). For the same compound, the “MIC50 T. intermedia” value in series [4] was determined as 62.5 µg/mL (≈ 42.1 µM). Further, the “MIC50 D. desulfuricans” value in series [2] amounted to 250 µg/mL (≈ 168 µM). The “MIC95 D. indonesiensis” value in series [3] was 31.25 µg/mL (≈ 21 µM).

For FKKFWKWFRRF [Peptide S6L3-33], in “in vitro”, the amount remaining at 48 h, 1 mg/mL was determined as 93% and the share remaining at 168 h, 1 mg/mL was 85%. For the same compound, the “MIC50 T. intermedia” value in series [4] worked out at 62.5 µg/mL. In addition, the “MIC50 D. desulfuricans” value in series [2] stood at 500 µg/mL.

With `O=S(=O)([O-])[O-].OC[P+](CO)(CO)CO.OC[P+](CO)(CO)CO` [THPS, tetrakis(hydroxymethyl)phosphonium sulfate], the “concentration required to inhibit SRB growth” value in the series with SRB is 40 µg/mL.

With `CCCCCCCCCCCCCC(=O)N[C@@H](CCCCN)C(=O)N[C@@H](CCCCN)C(=O)N[C@@H](CC(C)C)C(=O)N[C@@H](Cc1c[nH]c2ccccc12)C(=O)N[C@@H](CCCCN)C(=O)N[C@@H](Cc1c[nH]c2ccccc12)C(=O)N[C@@H](CC(C)C)C(=O)N[C@@H](CCCCN)C(=O)N[C@@H](CCCCN)C(=O)N[C@@H](CC(C)C)C(=O)N[C@@H](CC(C)C)C(N)=O` [Peptide P3.6.] (HELM PEPTIDE1{[CCCCCCCCCCCCCC(=O)[*:2]].K.K.L.W.K.W.L.K.K.L.L.[am]}$$$$V2.0), in series [1] (48 h, 37 °C, without shaking), the “MIC95 D. vulgaris” value amounted to 125 µg/mL (≈ 73.8 µM). Besides, the “MIC50 D. desulfuricans” value in series [2] was found to be 125 µg/mL (≈ 73.8 µM). Moreover, in series [3], the “MIC95 D. indonesiensis” value stood at 62.5 µg/mL (≈ 36.9 µM).

As to KKLLKWLKKLL [Peptide L5K5W], in “in vitro”, the amount remaining at 48 h, 1 mg/mL is 91% and the amount remaining at 168 h, 1 mg/mL came out at 80%. For the same compound, in series [4], the “MIC50 T. intermedia” value amounted to 500 µg/mL. For the same compound, in series [2], the “MIC50 D. desulfuricans” value was greater than 1000 µg/mL.

Take Ac-KKLWKWLKKLL-NH2 [Peptide P3.1.]: the “MIC95 D. vulgaris” value in series [1] (48 h, 37 °C, without shaking) is 31.25 µg/mL. Further, the “MIC50 D. desulfuricans” value in series [2] came to 500 µg/mL. In addition, the “MIC95 D. indonesiensis” value in series [3] was determined as 125 µg/mL.

`CCCCCCCCCC(=O)N[C@@H](CCCCN)C(=O)N[C@@H](CCCCN)C(=O)N[C@@H](CC(C)C)C(=O)N[C@@H](Cc1c[nH]c2ccccc12)C(=O)N[C@@H](CCCCN)C(=O)N[C@@H](Cc1c[nH]c2ccccc12)C(=O)N[C@@H](CC(C)C)C(=O)N[C@@H](CCCCN)C(=O)N[C@@H](CCCCN)C(=O)N[C@@H](CC(C)C)C(=O)N[C@@H](CC(C)C)C(N)=O` [Peptide P3.4.] (HELM PEPTIDE1{[CCCCCCCCCC(=O)[*:2]].K.K.L.W.K.W.L.K.K.L.L.[am]}$$$$V2.0): the “MIC95 D. vulgaris” value in series [1] (48 h, 37 °C, without shaking) worked out at 31.25 µg/mL (≈ 19.1 µM). The “MIC50 D. desulfuricans” value in series [2] is 125 µg/mL (≈ 76.3 µM). The “MIC95 D. indonesiensis” value in series [3] stood at 31.25 µg/mL (≈ 19.1 µM).

Regarding FFGKVLKLIRKIF [DASamP1], the fraction remaining at 48 h, 1 mg/mL in “in vitro” is 99%. In series [4], the “MIC50 T. intermedia” value was 125 µg/mL. Moreover, the “MIC50 D. desulfuricans” value in series [2] came out at 500 µg/mL.

Take `CC(C)C[C@H](NC(=O)[C@H](CC(C)C)NC(=O)[C@H](CCCCN)NC(=O)[C@H](CCCCN)NC(=O)[C@H](CC(C)C)NC(=O)[C@H](Cc1c[nH]c2ccccc12)NC(=O)[C@H](CCCCN)NC(=O)[C@H](Cc1c[nH]c2ccccc12)NC(=O)[C@H](CC(C)C)NC(=O)[C@H](CCCCN)NC(=O)[C@H](CCCCN)NC(=O)CCCCCCCN)C(N)=O` [Peptide P3.3.] (HELM PEPTIDE1{[NCCCCCCCC(=O)[*:2]].K.K.L.W.K.W.L.K.K.L.L.[am]}$$$$V2.0): the “MIC50 D. desulfuricans” value in series [2] was determined as 250 µg/mL (≈ 154 µM).
